We go through 13 molecules from patent US12371436B2, “Substituted benzodiazoliums as ENaC inhibitors” (ENTERPRISE THERAPEUTICS LIMITED, priority 2016, dated 2025).

SMILES strings stand for the structures.

This experiment concerns the target T1, ENaC (Homo sapiens, UniProt P37088+P51168+P51170).
T1 construct: host or cells: primary human bronchial epithelial cells (HBECs) differentiated at air-liquid interface
T1 sequence (P37088 1-669): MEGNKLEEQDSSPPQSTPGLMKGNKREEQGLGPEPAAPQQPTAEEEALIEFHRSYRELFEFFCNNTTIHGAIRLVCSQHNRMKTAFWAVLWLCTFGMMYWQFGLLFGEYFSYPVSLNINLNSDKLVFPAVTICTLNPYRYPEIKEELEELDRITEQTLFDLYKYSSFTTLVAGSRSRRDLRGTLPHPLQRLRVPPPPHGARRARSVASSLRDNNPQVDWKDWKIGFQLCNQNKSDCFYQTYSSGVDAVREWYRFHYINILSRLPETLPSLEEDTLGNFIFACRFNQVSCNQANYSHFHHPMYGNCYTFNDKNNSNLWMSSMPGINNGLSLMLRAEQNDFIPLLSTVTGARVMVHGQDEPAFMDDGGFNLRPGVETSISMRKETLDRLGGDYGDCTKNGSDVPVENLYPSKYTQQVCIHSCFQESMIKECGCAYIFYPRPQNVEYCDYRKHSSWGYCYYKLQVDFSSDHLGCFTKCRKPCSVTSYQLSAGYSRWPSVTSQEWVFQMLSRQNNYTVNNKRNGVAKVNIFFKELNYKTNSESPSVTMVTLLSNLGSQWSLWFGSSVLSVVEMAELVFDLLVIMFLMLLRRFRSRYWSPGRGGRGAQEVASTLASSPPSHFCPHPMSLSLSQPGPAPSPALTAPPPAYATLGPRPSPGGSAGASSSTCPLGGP
T1 sequence (P51168 1-640): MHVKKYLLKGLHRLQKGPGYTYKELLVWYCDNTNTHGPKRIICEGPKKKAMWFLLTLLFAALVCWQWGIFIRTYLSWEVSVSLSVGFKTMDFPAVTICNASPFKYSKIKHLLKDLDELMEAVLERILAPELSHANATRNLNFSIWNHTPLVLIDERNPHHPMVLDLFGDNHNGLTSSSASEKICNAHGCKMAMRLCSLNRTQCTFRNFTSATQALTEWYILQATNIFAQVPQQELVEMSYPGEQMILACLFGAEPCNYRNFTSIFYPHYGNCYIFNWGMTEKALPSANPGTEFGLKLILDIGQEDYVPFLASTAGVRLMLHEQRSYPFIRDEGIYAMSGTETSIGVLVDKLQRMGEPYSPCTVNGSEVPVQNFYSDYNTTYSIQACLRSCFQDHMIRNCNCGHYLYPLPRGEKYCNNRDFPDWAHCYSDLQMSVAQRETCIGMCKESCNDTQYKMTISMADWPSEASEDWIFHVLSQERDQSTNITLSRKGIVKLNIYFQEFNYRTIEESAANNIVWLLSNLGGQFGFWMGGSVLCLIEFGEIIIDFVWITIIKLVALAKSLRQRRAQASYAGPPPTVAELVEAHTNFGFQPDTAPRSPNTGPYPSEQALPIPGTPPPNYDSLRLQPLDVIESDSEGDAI
T1 sequence (P51170 1-649): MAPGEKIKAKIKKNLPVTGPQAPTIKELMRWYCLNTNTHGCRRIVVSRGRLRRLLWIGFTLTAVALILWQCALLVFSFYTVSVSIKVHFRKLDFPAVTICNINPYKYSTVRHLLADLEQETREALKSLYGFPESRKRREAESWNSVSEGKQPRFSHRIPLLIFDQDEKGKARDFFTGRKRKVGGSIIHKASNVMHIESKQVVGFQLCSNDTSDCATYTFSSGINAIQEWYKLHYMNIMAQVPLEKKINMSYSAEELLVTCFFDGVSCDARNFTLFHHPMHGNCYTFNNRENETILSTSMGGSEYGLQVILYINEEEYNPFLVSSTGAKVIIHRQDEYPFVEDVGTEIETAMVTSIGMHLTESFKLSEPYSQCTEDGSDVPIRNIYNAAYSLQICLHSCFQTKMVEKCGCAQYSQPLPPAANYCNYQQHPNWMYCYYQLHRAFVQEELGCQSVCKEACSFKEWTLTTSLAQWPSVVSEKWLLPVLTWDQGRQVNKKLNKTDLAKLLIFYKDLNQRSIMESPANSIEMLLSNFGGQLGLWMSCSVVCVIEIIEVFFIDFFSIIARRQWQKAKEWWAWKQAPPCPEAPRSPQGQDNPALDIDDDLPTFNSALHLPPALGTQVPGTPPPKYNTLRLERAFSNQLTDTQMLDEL
The experiment in a line: Short circuit current assay to determine ENaC blocker potency in human bronchial epithelial cells. Format: cell-based. Conditions: 50% inhibition of total amiloride-sensitive ISC, apical addition, read-out: Averages.ENaC IC50 (nM) Avg. The method, then: Example 68—Short circuit current assay to determine ENaC blocker potency in human bronchial epithelial cells
Human bronchial epithelial cells (HBECs) (Lonza, UK) were cultured using a modification of the method described by Coote et al, (2008). Cells were seeded into plastic T-75 flasks and grown in Bronchial Epithelial Cell Growth Medium (BEGM) (Lonza, UK) supplemented with bovine pituitary extract (52 ng/mL), hydrocortisone (0.5 μg/mL), human recombinant Epidermal Growth Factor (0.5 ng/mL), epinephrine (0.5 ng/mL), transferrin (10 ng/mL), insulin (5 ng/mL), retinoic acid (0.1 ng/mL), triiodothyronine (6.5 ng/mL), gentamycin (50 μg/mL) and amphotericin-B (50 ng/mL). Medium was changed every 48 hours until cells were 90% confluent. Cells were then passaged and seeded (8.25×10^5 cells/insert) onto polycarbonate Snapwell™ inserts (Costar, UK) in differentiation media containing 50% DMEM in BGEM with the same supplements as above but without triiodothyronine and a final retinoic acid concentration of 50 nM (all-trans retinoic acid; Sigma-Aldrich, UK). Cells were maintained submerged for the first 7 days in culture after which time they were exposed to an apical air interface for the remainder of the culture period. From the first day of establishment of an ALI, HBEC were fed with a DMEM:HAMS F-12 (1:1) media containing 2% Ultroser G (Pall BioSepra, France) with gentamycin (50 μg/mL) and amphotericin B (50 ng/mL). Cells were used for short-circuit current assay between days 14-21 after the establishment of the ALI. At all stages of culture, cells were maintained at 37° C. in 5% CO2 in an air incubator.
Short-Circuit Current (ISC) Measurements
Snapwell inserts were mounted in Costar Vertical Diffusion Chambers (Costar, UK) and were bathed with continuously gassed Ringer solution (5% CO2 in O2; pH 7.4) maintained at 37° C. containing (in mM): 120 NaCl, 25 NaHCO3, 3.3 KH2PO4, 0.8 K2HPO4, 1.2 CaCl2, 1.2 MgCl2 and 10 glucose. The solution osmolarity was always between 280-300 mOsm/kg H2O for all physiological salt solutions used. Cells were voltage clamped to 0 mV (model EVC4000, WPI). Transepithelial resistance (RT) was measured by applying a 2 mV pulse at 30 s intervals and calculating RT by Ohm's law. Data were recorded using a PowerLab workstation (ADlnstruments, UK).
ENaC blocker compounds were added to the apical chamber from a 1000-fold stock solution (prepared in DMSO) to achieve a cumulative concentration response in terms of the inhibition of the basal ISC. At the completion of the concentration response, a supra-maximal concentration of amiloride (10 μM) was added. The concentration of test compound that induced a 50% inhibition of the total amiloride-sensitive ISC (IC50) was calculated using GraphPad Prism v6.05. The results are presented in Table 2, from which it can be seen that the compounds of the present invention have ENaC inhibiting activity.
What is called IC50 is the concentration that inhibits the measured activity by half. For `CCn1c(CNC(=O)c2nc3cc[nH]c3nc2N)[n+](CC)c2ccc(-c3cnn(C4CCNCC4)c3)cc21` [Example 31, 2-[({3-amino-5H-pyrrolo[2,3-b]pyrazin-2-yl}formamido)methyl]-1,3-diethyl-6-[1-(piperidin-4-yl)-1H-pyrazol-4-yl]-1H-1,3-benzodiazol-3-ium], the IC50 amounted to 1 nM.

`CCn1c(CNC(=O)c2nc3cc[nH]c3nc2N)[n+](CC)c2ccc(OCCNC(=N)N)cc21` [Example 32, 2-[({3-amino-5H-pyrrolo[2,3-b]pyrazin-2-yl}formamido)methyl]-6-(2-carbamimidamidoethoxy)-1,3-diethyl-1H-1,3-benzodiazol-3-ium]: the IC50 was determined as 3 nM. Under `CCn1c(CNC(=O)c2nc3cc[nH]c3nc2N)[n+](CC)c2ccc(CCCNC(=N)N)cc21` [Example 33, 2-[({3-amino-5H-pyrrolo[2,3-b]pyrazin-2-yl}formamido)methyl]-6-(3-carbamimidamidopropyl)-1,3-diethyl-1H-1,3-benzodiazol-3-ium] stands 3 nM; under `CCn1c(CNC(=O)c2nc3cc[nH]c3nc2N)[n+](CC)c2ccc(C(=O)O)cc21` [Example 34, 2-[({3-amino-5H-pyrrolo[2,3-b]pyrazin-2-yl}formamido)methyl]-6-carboxy-1,3-diethyl-1H-1,3-benzodiazol-3-ium], 160 nM.

With `CCn1c(CNC(=O)c2nc3cc[nH]c3nc2N)[n+](CC)c2ccc(C(=O)NCCCNC(=O)OC(C)(C)C)cc21` [Example 35, 2-[({3-amino-5H-pyrrolo[2,3-b]pyrazin-2-yl}formamido)methyl]-6-[(3-{[(tert-butoxy)carbonyl]amino}propyl)carbamoyl]-1,3-diethyl-1H-1,3-benzodiazol-3-ium formic acid], the IC50 stood at 5 nM. Under `CCn1c(CNC(=O)c2nc3cc[nH]c3nc2N)[n+](CC)c2ccc(C(=O)NC3CCN(C(=O)OC(C)(C)C)CC3)cc21` [Example 36, 2-[({3-amino-5H-pyrrolo[2,3-b]pyrazin-2-yl}formamido)methyl]-6-({1-[(tert-butoxy)carbonyl]piperidin-4-yl}carbamoyl)-1,3-diethyl-1H-1,3-benzodiazol-3-ium] stands 3 nM; under `CCn1c(CNC(=O)c2nc3cc[nH]c3nc2N)[n+](CC)c2ccc(C(=O)NCCN3CCC(NC(=O)OC(C)(C)C)CC3)cc21` [Example 38, 2-[({3-amino-5H-pyrrolo[2,3-b]pyrazin-2-yl}formamido)methyl]-6-{[2-(4-{[(tert-butoxy)carbonyl]amino}piperidin-1-yl)ethyl]carbamoyl}-1,3-diethyl-1H-1,3-benzodiazol-3-ium], 9 nM; under `CCn1c(CNC(=O)c2nc3cc[nH]c3nc2N)[n+](CC)c2ccc(C(=O)NCCCN)cc21` [Example 39, 2-[({3-amino-5H-pyrrolo[2,3-b]pyrazin-2-yl}formamido)methyl]-6-[(3-aminopropyl)carbamoyl]-1,3-diethyl-1H-1,3-benzodiazol-3-ium], 15 nM. Under `CCn1c(CNC(=O)c2nc3cc[nH]c3nc2N)[n+](CC)c2ccc(C(=O)NC3CCNCC3)cc21` [Example 40, 2-[({3-amino-5H-pyrrolo[2,3-b]pyrazin-2-yl}formamido)methyl]-1,3-diethyl-6-[(piperidin-4-yl)carbamoyl]-1H-1,3-benzodiazol-3-ium] stands 7 nM. The figure for `CCn1c(CNC(=O)c2nc3cc[nH]c3nc2N)[n+](CC)c2ccc(C(=O)N3CCC(N)CC3)cc21` [Example 41, 2-[({3-amino-5H-pyrrolo[2,3-b]pyrazin-2-yl}formamido)methyl]-6-(4-aminopiperidine-1-carbonyl)-1,3-diethyl-1H-1,3-benzodiazol-3-ium] is 11 nM. As for `CCn1c(CNC(=O)c2nc3cc[nH]c3nc2N)[n+](CC)c2ccc(C(=O)NCCN3CCC(N)CC3)cc21` [Example 42, 2-[({3-amino-5H-pyrrolo[2,3-b]pyrazin-2-yl}formamido)methyl]-6-{[2-(4-aminopiperidin-1-yl)ethyl]carbamoyl}-1,3-diethyl-1H-1,3-benzodiazol-3-ium], the IC50 was determined as 10 nM. Under `CCn1c(CNC(=O)c2nc3cc[nH]c3nc2N)[n+](CC)c2ccc(OCCN(C[C@H](O)[C@@H](O)[C@H](O)[C@H](O)CO)C[C@H](O)[C@@H](O)[C@H](O)[C@H](O)CO)cc21` [Example 43, 2-[({3-amino-5H-pyrrolo[2,3-b]pyrazin-2-yl}formamido)methyl]-5-(2-{bis[(2S,3R,4R,5R)-2,3,4,5,6-pentahydroxyhexyl]amino}ethoxy)-1,3-diethyl-1H-1,3-benzodiazol-3-ium] stands 51 nM. With `CCn1c(CNC(=O)c2nc3cc[nH]c3nc2N)[n+](CC)c2ccc(OCCCN(C[C@H](O)[C@@H](O)[C@H](O)[C@H](O)CO)C[C@H](O)[C@@H](O)[C@H](O)[C@H](O)CO)cc21` [Example 44, 2-[({3-amino-5H-pyrrolo[2,3-b]pyrazin-2-yl}formamido)methyl]-5-(3-{bis[(2S,3R,4R,5R)-2,3,4,5,6-pentahydroxyhexyl]amino}propoxy)-1,3-diethyl-1H-1,3-benzodiazol-3-ium], the IC50 stood at 21 nM.
